In article PMC9005747, “Application of per-Residue Energy Decomposition to Design Peptide Inhibitors of PSD95 GK Domain” (Frontiers in Molecular Biosciences, 2022) one finds Kd data, which are given here for seven molecules.

Where two headings read alike, the source gives them in different places. Non-standard residues stand in square brackets, D forms with d. Primed or numbered codes have the meaning given here. No end group written: not given here. FITC′ = fluorescein isothiocyanate label on the N-terminus; pS = N[C@@H](COP(=O)(O)O)C(=O)O

The target of assay [1] is GK domain of PSD95. Particulars: isothermal titration calorimetry assay; ref Zhu et al., 2017; cited from earlier work.
Assay [2] has as its target GK domain of PSD95. The settings on record: fluorescence polarization assay, cited from earlier work. From the text: page 6: 2. Supplementary Tables Supplementary Table 1.
For assay [3], the target named is T1, His6-tagged PSD95 GK domain (a.a. 531-713) (UniProt P31016 531-713).
T1 construct: postsynaptic density protein 95 (PSD95, encoded by DLG4), guanylate kinase (GK) domain, a.a; 531-713; In the MST assay the protein was labelled on its His tag with the RED-Tris-NTA kit; The PDB entries are cited crystal structures of PSD95 GK with peptides; also called His-GK; His-PSD95 GK; source: E. coli BL21 (DE3), purified (Ni-NTA, size-exclusion chromatography); not shown: His6, N-terminal, …
T1 sequence (P31016 531-713): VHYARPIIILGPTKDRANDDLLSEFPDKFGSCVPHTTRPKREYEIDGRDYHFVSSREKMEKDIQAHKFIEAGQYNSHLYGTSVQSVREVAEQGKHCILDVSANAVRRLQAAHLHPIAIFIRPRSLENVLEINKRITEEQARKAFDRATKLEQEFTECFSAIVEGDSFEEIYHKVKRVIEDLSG
The assay is described as follows: fluorescence polarisation; direct titration: 10 nM FITC-SAPAP constant, His-GK 0 to 20 uM; 50 mM Tris, 100 mM NaCl, pH 7.5; 384-well plates, 1-h incubation. The settings on record: both partners purified.

Consider AARRE[pS]YLKATQPSL [p-SAPAP], for which the Kd on GK domain of PSD95 [1] is 0.08 ± 0.01 µM.
Consider AELEGGPYSPLGKDYRKAEGEREEEG [MAP1A], for which the dissociation constant Kd at GK domain of PSD95 [2] (ref Xia et al., 2017) is 12.1 ± 0.2 µM.
As for GRRH[pS]MENLELMKLTPEK [p-LGN], on GK domain of PSD95 [2] (ref Zhu et al., 2011), the Kd is 0.53 ± 0.09 µM.
In the case of LSRVK[pS]LKKSLRQSF [p-LGL2], the Kd on GK domain of PSD95 [2] (ref Zhu et al., 2014) was 10.2 ± 1.3 µM.
With RIRREEYRRAINGQSFDLS, the Kd at GK domain of PSD95 [1] was 0.66 ± 0.13 µM.
Consider RIRREEYRRAINGQSMKL, for which the Kd at GK domain of PSD95 [1] is 1.86 ± 0.31 µM.

B1: FITC-labeled SAPAP peptide FITC-AARRE(pS)YLKATQ (peptide)
peptide: {FITC′}-AARRE[pS]YLKATQ
notes: phosphorylated SAPAP peptide; SAPAP1 (DLGAP1, GKAP) is the member it names elsewhere; also called FITC-SAPAP; FITC-SAPAP probe; source: synthetic peptide, bought: China Peptides
B1 had a Kd in assay [3] of 4.28 µM.
